Values joined by “and” are separate entries in the source; they are usually repeats but may differ in a detail not shown here. Equal values may be shown once. Where a name gives a salt, the structure may show the parent alone. Square brackets hold non-standard residues; d marks the D form. Peptide text beside a SMILES is read from it. * marks the point of attachment. X2 = CC(C)[C@@H](C(=O)*)N(C)CCCCCCN1C(=O)CC(SC[C@H](N)C(=O)O)C1=O; X3 = CC(C)[C@@H](C(=O)*)N(C)CCOCCOCCOCCC(=O)NCCCC[C@H](N)C(=O)O; X4 = C[C@@H](O)[C@@H](C(=O)*)N(C)CCCCCC(=O)NCCCC[C@H](N)C(=O)O; X1 = CC(C)[C@@H](C(=O)*)N(C)CCCCCC(=O)NCCCC[C@H](N)C(=O)O; Dolaproine = CO[C@@H]([C@@H]1CCCN1)[C@@H](C)C(=O)O; Dil = CC[C@H](C)[C@H](NC)[C@@H](CC(=O)O)OC; Oxazinan2yl(1,2) = C1CCN(*)OC1
Tests used:
tubulin = assay: Fluorescence-based microtubule (tubulin) polymerization assay; format: biochemical
Protocol: Tubulin polymerization was investigated using the “Fluorescence-based Microtubule Polymerisation Assay Kit” from Cytoskeleton (Denver, Colo., USA; order number: BK011). With this assay, GTP is added to unpolymerized tubulin, allowing polymerization to take place spontaneously. The assay is based on the binding of the fluorophore 4′,6-di-amidino-2-phenylindole (DAPI) to tubulin. Free and bound DAPI can be differentiated on the basis of different emission spectra.
[…] In addition to the buffer control, paclitaxel, with a polymerization-increasing effect, and vinblastin, with a polymerization inhibiting effect, were run additionally as assay controls. Measurement was carried out using 96-well plates with a half base area. The kinetics of the tubulin polymerization were monitored in a Fluorimeter at 37° C. for 1 hour. The excitation wavelength was 355 nm, and emission was monitored at 460 nm. For the region of linear increase within the first 10 minutes, a calculation was made of the change in fluorescence per minute (ΔF/min), which represents the polymerization rate of the microtubuli. The potency of the test substances was quantified on the basis of their respective reduction of the polymerization rate.
The reduction in the tubulin polymerization rate occurs in dependence on the concentration of the test substance added.

Caco-2 cells = assay: Caco-2 flux assay for cell permeability; format: in vitro ADME; conditions: 2 hours, B to A
Protocol: The cell permeability of a substance can be investigated by means of in vitro testing in a flux assay using Caco-2 cells [M. D. Troutman and D. R. Thakker, Pharm. Res. 20 (8), 1210-1224 (2003)]. For this purpose, the cells were cultured for 15-16 days on 24-well filter plates. For the determination of permeation, the respective working example was applied in a HEPES buffer to the cells either apically (A) or basally (B) and incubated for 2 hours. After 0 hours and after 2 hours, samples were taken from the cis and trans compartments. The samples were separated by HPLC (Agilent 1200, Böblingen, Germany) using reverse phase columns. The HPLC system was coupled via a Turbo Ion Spray Interface to a Triple Quadropol mass spectrometer API 4000 (Applied Biosystems Applera, Darmstadt, Germany). The permeability was evaluated on the basis of a Papp value, which was calculated using the formula published by Schwab et al. [D. Schwab et al., J. Med. Chem. 46, 1716-1725 (2003)].

[1] = concentration of toxophore 1 μM
[2] = concentration of toxophore 10 μM

Row | SMILES | Tubulin polymerization in the presence of toxophore in [%]. Tubulin polymerization rate at 1 μM MMAF set at 100% (tubulin; [1]) [%] | Tubulin polymerization in the presence of toxophore in [%]. Tubulin polymerization rate at 1 μM MMAF set at 100% (tubulin; [2]) [%] | Papp (B-A) (Caco-2 cells) [×10⁻⁶ cm/s] | Tubulin polymerization in the presence of toxophore in [%]. Tubulin polymerization rate at 1 μM MMAF set at 100% (tubulin; concentration of toxophore 1 μM, trifluoroacetate)
1 | CC[C@H](C)[C@@H]([C@@H](CC(=O)N1CCC[C@H]1[C@H](OC)[C@@H](C)C(=O)N[C@@H](Cc1c[nH]c2ccccc12)C(N)=O)OC)N(C)C(=O)[C@@H](NC(=O)[C@H](C(C)C)N(C)CCCC(=O)NNC(=O)CCCCCN1C(=O)CC(SC[C@H](N)C(=O)O)C1=O)C(C)C (stereo partly drawn) [Example 62, N-(4-{2-[6-(3-{[(2R)-2-Amino-2-carboxyethyl]sulphanyl}-2,5-dioxopyrrolidin-1-yl)hexanoyl]hydrazino}-4-oxobutyl)-N-methyl-L-valyl-N-[(3R,4S,5S)-1-{(2S)-2-[(1R,2R)-3-{[(2S)-1-amino-3-(1H-indol-3-yl)-1-oxopropan-2-yl]amino}-1-methoxy-2-methyl-3-oxopropyl]pyrrolidin-1-yl}-3-methoxy-5-methyl-1-oxoheptan-4-yl]-N-methyl-L-valinamide] | 88 | 25 | 0.2 | –
2 | CC[C@H](C)[C@@H]([C@@H](CC(=O)N1CCC[C@H]1[C@H](OC)[C@@H](C)C(=O)N[C@@H](Cc1c[nH]c2ccccc12)C(=O)O)OC)N(C)C(=O)[C@@H](NC(=O)[C@H](C(C)C)N(C)CCCC(=O)NNC(=O)CCCCCN1C(=O)CC(SC[C@H](N)C(=O)O)C1=O)C(C)C (stereo partly drawn) [Example 63, N-(4-{2-[6-(3-{[(2R)-2-Amino-2-carboxyethyl]sulphanyl}-2,5-dioxopyrrolidin-1-yl)hexanoyl]hydrazino}-4-oxobutyl)-N-methyl-L-valyl-N-[(3R,4S,5S)-1-{(2S)-2-[(1R,2R)-3-{[(1S)-1-carboxy-2-(1H-indol-3-yl)ethyl]amino}-1-methoxy-2-methyl-3-oxopropyl]pyrrolidin-1-yl}-3-methoxy-5-methyl-1-oxoheptan-4-yl]-N-methyl-L-valinamide] | – | 27 | 0.16 | –
3 | CC[C@H](C)[C@@H]([C@@H](CC(=O)N1CCC[C@H]1[C@H](OC)[C@@H](C)C(=O)N[C@@H](Cc1c[nH]c2ccccc12)C(N)=O)OC)N(C)C(=O)[C@@H](NC(=O)[C@H](C(C)C)N(C)CCCCCCN1C(=O)CC(SC[C@H](N)C(=O)O)C1=O)C(C)C (stereo partly drawn) [Example 65, N-[6-(3-{[(2R)-2-Amino-2-carboxyethyl]sulphanyl}-2,5-dioxopyrrolidin-1-yl)hexyl]-N-methyl-L-valyl-N-[(3R,4S,5S)-1-{(2S)-2-[(1R,2R)-3-{[(2S)-1-amino-3-(1H-indol-3-yl)-1-oxopropan-2-yl]amino}-1-methoxy-2-methyl-3-oxopropyl]pyrrolidin-1-yl}-3-methoxy-5-methyl-1-oxoheptan-4-yl]-N-methyl-L-valinamide] (X2-V[Dil][Dolaproine]W-NH2) | – | 64 | 0.5 | –
4 | CC[C@H](C)[C@@H]([C@@H](CC(=O)N1CCC[C@H]1[C@H](OC)[C@@H](C)C(=O)N[C@@H](Cc1c[nH]c2ccccc12)C(=O)O)OC)N(C)C(=O)[C@@H](NC(=O)[C@H](C(C)C)N(C)CCCCCCN1C(=O)CC(SC[C@H](N)C(=O)O)C1=O)C(C)C (stereo partly drawn) [Example 66, N-[6-(3-{[(2R)-2-Amino-2-carboxyethyl]sulphanyl}-2,5-dioxopyrrolidin-1-yl)hexyl]-N-methyl-L-valyl-N-[(3R,4S,5S)-1-{(2S)-2-[(1R,2R)-3-{[(1S)-1-carboxy-2-(1H-indol-3-yl)ethyl]amino}-1-methoxy-2-methyl-3-oxopropyl]pyrrolidin-1-yl}-3-methoxy-5-methyl-1-oxoheptan-4-yl]-N-methyl-L-valinamide] (X2-V[Dil][Dolaproine]W-OH) | – | 25 | 0.1 | –
5 | CC[C@H](C)[C@@H]([C@@H](CC(=O)N1CCC[C@H]1[C@H](OC)[C@@H](C)C(=O)N[C@@H](Cc1c[nH]c2ccccc12)C(=O)N1CCCCO1)OC)N(C)C(=O)[C@@H](NC(=O)[C@H](C(C)C)N(C)CCCCCCN1C(=O)CC(SC[C@H](N)C(=O)O)C1=O)C(C)C (stereo partly drawn) [Example 67, N-[6-(3-{[(2R)-2-Amino-2-carboxyethyl]sulphanyl}-2,5-dioxopyrrolidin-1-yl)hexyl]-N-methyl-L-valyl-N-[(3R,4S,5S)-1-{(2S)-2-[(1R,2R)-3-{[(2S)-3-(1H-indol-3-yl)-1-(1,2-oxazinan-2-yl)-1-oxopropan-2-yl]amino}-1-methoxy-2-methyl-3-oxopropyl]pyrrolidin-1-yl}-3-methoxy-5-methyl-1-oxoheptan-4-yl]-N-methyl-L-valinamide] (X2-V[Dil][Dolaproine]W-{Oxazinan2yl(1,2)}) | – | 35 | – | –
6 | CC[C@H](C)[C@@H]([C@@H](CC(=O)N1CCC[C@H]1[C@H](OC)[C@@H](C)C(=O)N[C@@H](Cc1ccccc1)C(=O)NCc1ccccc1)OC)N(C)C(=O)[C@@H](NC(=O)[C@H](C(C)C)N(C)CCCC(=O)NNC(=O)CCCCCN1C(=O)CC(SC[C@H](N)C(=O)O)C1=O)C(C)C (stereo partly drawn) [Example 69, N-(4-{2-[6-(3-{[(2R)-2-Amino-2-carboxyethyl]sulphanyl}-2,5-dioxopyrrolidin-1-yl)hexanoyl]hydrazino}-4-oxobutyl)-N-methyl-L-valyl-N-[(3R,4S,5S)-1-{(2S)-2-[(1R,2R)-3-{[(2S)-1-(benzylamino)-1-oxo-3-phenylpropan-2-yl]amino}-1-methoxy-2-methyl-3-oxopropyl]pyrrolidin-1-yl}-3-methoxy-5-methyl-1-oxoheptan-4-yl]-N-methyl-L-valinamide] | 110 | – | – | –
7 | CC[C@H](C)[C@@H]([C@@H](CC(=O)N1CCC[C@H]1[C@H](OC)[C@@H](C)C(=O)N[C@@H](Cc1c[nH]c2ccccc12)C(=O)N1CCCCO1)OC)N(C)C(=O)[C@@H](NC(=O)[C@H](C(C)C)N(C)CCOCCOCCOCCC(=O)NCCCC[C@H](N)C(=O)O)C(C)C [Example 107, N-[(18S)-18-Amino-18-carboxy-12-oxo-3,6,9-trioxa-13-azaoctadec-1-yl]-N-methyl-L-valyl-N-[(3R,4S,5S)-1-{(2S)-2-[(1R,2R)-3-{[(2S)-3-(1H-indol-3-yl)-1-(1,2-oxazinan-2-yl)-1-oxopropan-2-yl]amino}-1-methoxy-2-methyl-3-oxopropyl]pyrrolidin-1-yl}-3-methoxy-5-methyl-1-oxoheptan-4-yl]-N-methyl-L-valinamide trifluoroacetate] (X3-V[Dil][Dolaproine]W-{Oxazinan2yl(1,2)}) | – | – | – | 60% and 78%
8 | CC[C@H](C)[C@@H]([C@@H](CC(=O)N1CCC[C@H]1[C@H](OC)[C@@H](C)C(=O)N[C@@H](Cc1c[nH]c2ccccc12)C(=O)N1CCCCO1)OC)N(C)C(=O)[C@@H](NC(=O)[C@H]([C@@H](C)O)N(C)CCCCCC(=O)NCCCC[C@H](N)C(=O)O)C(C)C [Example 116, N-(6-{[(5S)-5-Amino-5-carboxypentyl]amino}-6-oxohexyl)-N-methyl-L-threonyl-N-[(3R,4S,5S)-1-{(2S)-2-[(1R,2R)-3-{[(2S)-3-(1H-indol-3-yl)-1-(1,2-oxazinan-2-yl)-1-oxopropan-2-yl]amino}-1-methoxy-2-methyl-3-oxopropyl]pyrrolidin-1-yl}-3-methoxy-5-methyl-1-oxoheptan-4-yl]-N-methyl-L-valinamide trifluoroacetate] (X4-V[Dil][Dolaproine]W-{Oxazinan2yl(1,2)}) | – | – | 0.18 | –
9 | CC[C@H](C)[C@@H]([C@@H](CC(=O)N1CCC[C@H]1[C@H](OC)[C@@H](C)C(=O)N[C@@H](Cc1ccc(O)cc1)C(=O)O)OC)N(C)C(=O)[C@@H](NC(=O)[C@H](C(C)C)N(C)CCCCCC(=O)NCCCC[C@H](N)C(=O)O)C(C)C [Example 118, N-(6-{[(5S)-5-Amino-5-carboxypentyl]amino}-6-oxohexyl)-N-methyl-L-valyl-N-[(3R,4S,5S)-1-{(2S)-2-[(1R,2R)-3-{[(1S)-1-carboxy-2-(4-hydroxyphenyl)ethyl]amino}-1-methoxy-2-methyl-3-oxopropyl]pyrrolidin-1-yl}-3-methoxy-5-methyl-1-oxoheptan-4-yl]-N-methyl-L-valinamide trifluoroacetate] (X1-V[Dil][Dolaproine]Y-OH) | 90 | 17 | – | –

From patent US20130122024A1, “NEW BINDER-DRUG CONJUGATES (ADCS) AND USE THEREOF” (Bayer Intellectual Property GmbH, priority 2011, published 2013)
